Test results published in ChEMBL document CHEMBL1142612, “A meroterpenoid NF-kappaB inhibitor and drimane sesquiterpenoids from Asafetida” (J Nat Prod, 2006).
Activity calls are given as the source filed them. No cut-off for these calls is given here.

Assays:
[1] = Inhibition of NF-kappaB in TNF-alpha-stimulated human cloned Jurkat 5.1 cells cotransfected with HIV1-LTR promoter preincubated for 30 mins before TNFalpha challenge after 6 hrs by luciferase reporter gene assay; assay type: cell-based
HeLa = test: Cytotoxicity against human HeLa cells using propidium iodide staining by flow cytometry; assay type: functional, cell-based
A549 [2] = test: Inhibition of NF-kappaB in TNF-alpha-stimulated human A549 cells cotransfected with KBF-luciferase gene preincubated for 30 mins before TNFalpha challenge after 6 hrs by luciferase reporter gene assay; assay type: cell-based
Jurkat = test: Cytotoxicity against human cloned Jurkat 5.1 cells using propidium iodide staining by flow cytometry; assay type: functional, cell-based
A549 [3] = test: Cytotoxicity against human A549 cells using propidium iodide staining by flow cytometry; assay type: functional, cell-based

Row | IC50 [1] | SMILES | Activity (HeLa) | Activity (A549 [2]) | Activity (Jurkat) | Activity (A549 [3])
1 | 37.5 µM | CC(C)=CCC(O)/C(C)=C/C(O)C/C(C)=C/COc1ccc2ccc(=O)oc2c1 (configuration not stated) |  |  |  | 
2 | 57.6 µM | CC1=CC(=O)C2=C(C)CC3OC(=O)C(C)=C3C=C12 (configuration not stated) [TARAXACIN] |  |  |  | 

Row | SMILES | IC50 [1] | Activity (HeLa) | Activity (A549 [2]) | Activity (Jurkat) | Activity (A549 [3])
3 | CC(=O)OC(CC=C(C)C)/C(C)=C/C(O)C/C(C)=C/COc1ccc2ccc(=O)oc2c1 (configuration not stated) | 15.1 µM | inactive | Dose-dependent effect | inactive | inactive
